The target in one experiment is T1, TYK2 JH2 (Homo sapiens, UniProt P29597).
T1 construct: The pseudokinase domain (JH2) of human JAK (Janus family of cytoplasmic tyrosine kinases) family tyrosine kinase 2 (TYK2); made in house
Description: Binding to TYK2 JH2 by Scintillation Proximity Assay. Conditions: His-tagged TYK2 JH2, 3H-labelled ligand 50 nM, SPA; geometric mean (SEM); read-out: IC50, inhibition of radioligand binding to TYK2 JH2. The text has this:
The pseudokinase domain (JH2) of human JAK (Janus family of cytoplasmic tyrosine kinases) family tyrosine kinase 2 (TYK2) with an N-terminal His^6 tag is expressed in baculovirus and purified by Ni-NTA affinity and size-exclusion chromatography. Yttrium (YSi) His-Tag scintillation proximity assay (SPA) beads (cat #PRNQ0096) are purchased from PerkinElmer Life Sciences. ^3H—N-[(1R)-1-[3-[8-Methyl-5-(methylamino)-8H-imidazo[4,5-d]thiazolo[5,4-b]pyridin-2-yl]phenyl]ethyl]-2-(methylsulfonyl) benzamide is synthesized by Quotient Bio with a specific activity of 63 Ci/mmol and a concentration 6.78 μM stored in ethanol (cat #TRQ41678) (See also e.g., J. S. Tokarski, et al., J. Biol. Chem., vol. 290(17), pages 11061-11074 (2015) and R. Moslin, et al., Med. Chem. Commun., vol. 8, pages 700-712 (2017)).
A 3 fold, 10 point serial dilution of Example 1 is prepared in 100% DMSO (200 nL) and transferred to a 96 well, white, clear bottom, non-binding surface assay plate (Costar 3604) using acoustic liquid handling. Control wells used to determine percent inhibition contained either DMSO (200 nL) or cold, unlabeled inhibitor (200 nL, 10 mM, 200 μM final concentration). […] After 15 minutes at room temperature, radioactivity is counted using the Trilux Microbeta.

In experiment [1] the test system is IL-23 signaling (STAT3 phosphorylation) in Kit225 cells. The experiment in a line: IL23 pSTAT3 AlphaLISA assay. Conditions: 0.5 h, IL23 25 ng/ml for 30 minutes, geometric mean (SEM), read-out: relative IC50, IL23 pSTAT3. Type of experiment: cell-based. The method, then:
IL2-dependent Kit225 cells expressing endogenous IL23 receptors are stably transduced with the Lenti STAT3 Reporter linked to firefly luciferase (SABiosciences CLS-6028L). These cells are used to monitor TYK2 activity by quantifying gene expression caused by STAT3 phosporylation following induction by IL23 in the presence of IL2 using AlphaLISA technology (TGR Biosciences ALSU-TST3-A50K). The cells are grown in RPMI 1640 (Gibco 22400) supplemented with 10% FBS (Invitrogen 10082), 1× Pen/Strep (Gibco 15140-122), 200 ng/ml Puromycin (Sigma P9620), and fresh 10 ng/ml recombinant human IL2 (R&D Systems 202-IL-50). For assay preparation, cells are dispensed into Biocoat black poly-d-lysine coated clear bottom 384-well plates (Becton Dickinson Bio-Coat 35-4640) in DMEM (Sigma D5796) at 300,000 cells/well and allowed to incubate overnight at 37° C. Compounds solubilized in DMSO are serially diluted 1:3 to produce a 10-point concentration response curve (final DMSO=0.1%). Cells are pre-incubated with Example 1 for 1 hour at 37° C., then stimulated with IL23 (25 ng/ml final) for 30 minutes. […] The AlphaLISA reaction is performed following the vendor's recommended protocol, and the luciferase levels are measured using an Envision plate reader (Perkin Elmer). […]

For experiment [2], the system named is IFNα signaling through pSTAT1 in TF1 cells. The experiment in a line: Inhibition of IFNα signaling through pSTAT1 in TF1 cells. Type of experiment: cell-based. The note with it: Homo sapiens, TF-1, 20 min, 10 ng/ml IFNα2 for 20 minutes, AlphaLISA, geometric mean (SEM), read-out: IC50, inhibition of p-Stat1 (Tyr701). The method, then:
TF1 cells (ATCC, CL-2003) are grown in RPMI 1640 (GIBCO) supplemented with 10% dialyzed FBS, 0.1 mg/ml Ampicillin and 2 ng/mL granulocyte macrophage colony stimulating factor. TF1 cells (100 K per well) are seeded in a 96-well poly-D-lysine coated plates in serum-free DMEM and incubated overnight at 37° C. under 5% CO2. Example 1 is serially diluted in DMSO, added to the cells, and incubated at 37° C. for 1 hr. Cells are then stimulated with 10 ng/ml IFNα2 at 37° C. for 20 minutes. After removing the medium, the cells are lysed in buffer containing Halt protease and phosphatase inhibitor cocktail (Thermo Scientific #78441) at room temperature for 30 minutes. The amount of p-Stat1 (Tyr701) is quantified as light emission at 615 nm using the AlphaLISA SureFire Ultra p-Stat1 (Tyr701) assay kit (Perkin Elmer #ALSU-PST1-A50K) following the vendor's recommended protocol. Percent inhibition at each inhibitor concentration is calculated and fit to the four parameter nonlinear logistic equation using Genedata Screener® to give an IC50 for the compound of Example 1 of 0.008 μM (±0.001 μM, n=5) and for the compound of Example 2 of 0.010 μM (±0.001 μM, n=4) expressed as GeoMetric means with the standard error of the mean (SEM).
(In Alpha technology, singlet oxygen from a donor bead excites a nearby acceptor bead.)

Broadly, the IC50 is the concentration at which inhibition is half-maximal.

T1 sequence (P29597 589-875 limits assumed): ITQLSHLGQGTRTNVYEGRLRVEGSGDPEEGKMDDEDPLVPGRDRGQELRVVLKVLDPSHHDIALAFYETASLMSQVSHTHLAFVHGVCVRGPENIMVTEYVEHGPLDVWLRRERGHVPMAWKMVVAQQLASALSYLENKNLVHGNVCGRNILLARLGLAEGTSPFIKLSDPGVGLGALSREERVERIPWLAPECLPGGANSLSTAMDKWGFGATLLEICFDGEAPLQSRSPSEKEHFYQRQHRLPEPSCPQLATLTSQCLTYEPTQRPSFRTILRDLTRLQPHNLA

As to `CCOc1ccccc1Nc1cc(NC)n2ncc(C(=O)N[C@@H]3CCN(C)C3=O)c2n1` (single isomer, unassigned) [Example 2], the figures for the IC50 (at TYK2 JH2; in experiment [1]; in experiment [2]) were 40 nM, 10 nM and 10 nM, respectively.
With `CNc1cc(Nc2ccccc2OC)nc2c(C(=O)N[C@@H]3CCN(C)C3=O)cnn12` [Example 1, 5-(2-Methoxyanilino)-7-(methylamino)-N-[(3R)-1-methyl-2-oxo-pyrrolidin-3-yl]pyrazolo[1,5-a]pyrimidine-3-carboxamide], the IC50 is 45 nM on TYK2 JH2, 9 nM in experiment [1] and 8 nM in experiment [2].

The values above are taken from patent publication US11891400B2, “Pyrazolo[1,5-a]pyrimidine-3-carboxamide derivatives useful in the treatment of psoriasis and systemic lupus erythematosus” (Eli Lilly and Company, priority 2018, dated 2024).
